Test results reported in PubChem BioAssay AID2060333 (Molecular Pharmacology Branch, DTP, NCI, 2025).
pIC50: −log10 of the molar value. Several values for one entry are separate records, joined by “and”; a condition that tells them apart may be missing. Equal entries are not always repeated.

System: 845751-090-R-J2-PDC tumor spheroid viability
Test: Anticancer human tumor 845751-090-R-J2-PDC patient-derived head and neck squamous carcinoma cell line growth inhibition [IpAb]
Conditions: spheroids with HUVEC and MSC; for viability, T/C: stronger effect = lower value; active = viability on the fitted dose curve at most 10% of control; inactive = the rest
Procedure, shortened: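 Combinations with ipatasertib or abemaciclib were tested on tumour spheroids holding HUVEC (25%) and MSC (15%) alongside 60% malignant cells. Top concentration was at or near clinical Cmax (10 microM if undefined), descending in half-log steps.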

[1] = curve of first compound, second compound 0.1 µM
[2] = curve of first compound, second compound 0.316 µM
[3] = curve of first compound, second compound 1 µM
[4] = curve of first compound, second compound 3.16 µM
[5] = curve of first compound, second compound 10 µM
[6] = second compound 0.1 µM, first compound 0.0316 µM
[7] = second compound 0.1 µM, first compound 0.1 µM
[8] = second compound 0.1 µM, first compound 0.316 µM
[9] = second compound 0.1 µM, first compound 1 µM
[10] = second compound 0.1 µM, first compound 3.16 µM
[11] = second compound 0.1 µM, first compound 10 µM
[12] = second compound 0.316 µM, first compound 0.0316 µM
[13] = second compound 0.316 µM, first compound 0.1 µM
[14] = second compound 0.316 µM, first compound 0.316 µM
[15] = second compound 0.316 µM, first compound 1 µM
[16] = second compound 0.316 µM, first compound 3.16 µM
[17] = second compound 0.316 µM, first compound 10 µM
[18] = second compound 1 µM, first compound 0.0316 µM
[19] = second compound 1 µM, first compound 0.1 µM
[20] = second compound 1 µM, first compound 0.316 µM
[21] = second compound 1 µM, first compound 1 µM
[22] = second compound 1 µM, first compound 3.16 µM
[23] = second compound 1 µM, first compound 10 µM
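Also: spheroids exposed to compounds for 7 days before readout.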
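For viability, T/C in this document: CTG3D luminescence normalised so that 100% = DMSO vehicle control.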

C=CCn1c(=O)c2cnc(Nc3ccc(N4CCN(C)CC4)cc3)nc2n1-c1cccc(C(C)(C)O)n1 + CC(C)NCC(C(=O)N1CCN(c2ncnc3c2C(C)CC3O)CC1)c1ccc(Cl)cc1
7.26: pIC50 [1]
> 7.50: pIC50 [2] | pIC50 [3] | pIC50 [4] | pIC50 [5]
active: viability, T/C (second compound 10 µM, first compound 0.0316 µM) 6.27% | viability, T/C (second compound 10 µM, first compound 0.1 µM) 4.29% | viability, T/C (second compound 10 µM, first compound 0.316 µM) 4.36% | viability, T/C (second compound 10 µM, first compound 1 µM) 14% | viability, T/C (second compound 10 µM, first compound 3.16 µM) 13.9% | viability, T/C (second compound 10 µM, first compound 10 µM) 8.16%
inactive: viability, T/C [6] 62.1% | viability, T/C [7] 38.2% | viability, T/C [8] 22.2% | viability, T/C [9] 21.7% | viability, T/C [10] 35.8% | viability, T/C [11] 56.6% | viability, T/C [12] 34% | viability, T/C [13] 22.1% | viability, T/C [14] 19.9% | viability, T/C [15] 16.9% | viability, T/C [16] 22.1% | viability, T/C [17] 28.4% | viability, T/C [18] 24.5% | viability, T/C [19] 15% | viability, T/C [20] 11.1% | viability, T/C [21] 13.7% | viability, T/C [22] 22.9% | viability, T/C [23] 18.9% | viability, T/C (second compound 3.16 µM, first compound 0.0316 µM) 19.2% | viability, T/C (second compound 3.16 µM, first compound 0.1 µM) 8.76% | viability, T/C (second compound 3.16 µM, first compound 0.316 µM) 7.09% | viability, T/C (second compound 3.16 µM, first compound 1 µM) 32.9% | viability, T/C (second compound 3.16 µM, first compound 3.16 µM) 19.9% | viability, T/C (second compound 3.16 µM, first compound 10 µM) 11.9%

Cn1nccc1Nc1nccc(-c2ccn(C(CO)c3ccc(Cl)c(F)c3)c(=O)c2)n1 (configuration not stated) + CCN1CCN(Cc2ccc(Nc3ncc(F)c(-c4cc(F)c5nc(C)n(C(C)C)c5c4)n3)nc2)CC1
inactive: viability, T/C (second compound 0.01 µM, first compound 0.0316 µM) 185% | viability, T/C (second compound 0.01 µM, first compound 0.1 µM) 202% | viability, T/C (second compound 0.01 µM, first compound 0.316 µM) 192% | viability, T/C (second compound 0.01 µM, first compound 1 µM) 227% | viability, T/C (second compound 0.01 µM, first compound 3.16 µM) 198% | viability, T/C (second compound 0.01 µM, first compound 10 µM) 135% | viability, T/C (second compound 0.0316 µM, first compound 0.0316 µM) 143% | viability, T/C (second compound 0.0316 µM, first compound 0.1 µM) 191% | viability, T/C (second compound 0.0316 µM, first compound 0.316 µM) 216% | viability, T/C (second compound 0.0316 µM, first compound 1 µM) 211% | viability, T/C (second compound 0.0316 µM, first compound 3.16 µM) 169% | viability, T/C (second compound 0.0316 µM, first compound 10 µM) 133% | viability, T/C [6] 154% | viability, T/C [7] 190% | viability, T/C [8] 181% | viability, T/C [9] 204% | viability, T/C [10] 185% | viability, T/C [11] 132% | viability, T/C [12] 156% | viability, T/C [13] 178% | viability, T/C [14] 210% | viability, T/C [15] 204% | viability, T/C [16] 174% | viability, T/C [17] 106% | viability, T/C [18] 161% | viability, T/C [19] 211% | viability, T/C [20] 224% | viability, T/C [21] 215% | viability, T/C [22] 171% | viability, T/C [23] 86.3%
< 5.00: pIC50 (curve of first compound, second compound 0.01 µM) | pIC50 (curve of first compound, second compound 0.0316 µM) | pIC50 [1] | pIC50 [2] | pIC50 [3]

CC(=O)c1c(C)c2cnc(Nc3ccc(N4CCNCC4)cn3)nc2n(C2CCCC2)c1=O + CC(C)NCC(C(=O)N1CCN(c2ncnc3c2C(C)CC3O)CC1)c1ccc(Cl)cc1
> 9.02: pIC50 [2] | pIC50 [3] | pIC50 [4] | pIC50 [5]
< 6.52: pIC50 [1]
inactive: viability, T/C (second compound 0.1 µM, first compound 0.000949 µM) 62.6% | viability, T/C (second compound 0.1 µM, first compound 0.003 µM) 64.7% | viability, T/C (second compound 0.1 µM, first compound 0.00949 µM) 51.6% | viability, T/C (second compound 0.1 µM, first compound 0.03 µM) 53.5% | viability, T/C (second compound 0.1 µM, first compound 0.0949 µM) 71.8% | viability, T/C (second compound 0.1 µM, first compound 0.3 µM) 68.5% | viability, T/C (second compound 0.316 µM, first compound 0.000949 µM) 39.1% | viability, T/C (second compound 0.316 µM, first compound 0.003 µM) 33.9% | viability, T/C (second compound 0.316 µM, first compound 0.00949 µM) 32.4% | viability, T/C (second compound 0.316 µM, first compound 0.03 µM) 28.6% | viability, T/C (second compound 0.316 µM, first compound 0.0949 µM) 28.4% | viability, T/C (second compound 0.316 µM, first compound 0.3 µM) 34.1% | viability, T/C (second compound 1 µM, first compound 0.000949 µM) 26.6% | viability, T/C (second compound 1 µM, first compound 0.003 µM) 29.3% | viability, T/C (second compound 1 µM, first compound 0.00949 µM) 24.1% | viability, T/C (second compound 1 µM, first compound 0.03 µM) 34.8% | viability, T/C (second compound 1 µM, first compound 0.0949 µM) 37.3% | viability, T/C (second compound 1 µM, first compound 0.3 µM) 22.9% | viability, T/C (second compound 3.16 µM, first compound 0.000949 µM) 29.4% | viability, T/C (second compound 3.16 µM, first compound 0.003 µM) 26.1% | viability, T/C (second compound 3.16 µM, first compound 0.00949 µM) 26.2% | viability, T/C (second compound 3.16 µM, first compound 0.03 µM) 26.6% | viability, T/C (second compound 3.16 µM, first compound 0.0949 µM) 18% | viability, T/C (second compound 3.16 µM, first compound 0.3 µM) 21.7% | viability, T/C (second compound 10 µM, first compound 0.000949 µM) 16.4% | viability, T/C (second compound 10 µM, first compound 0.003 µM) 15.8% | viability, T/C (second compound 10 µM, first compound 0.00949 µM) 13.7% | viability, T/C (second compound 10 µM, first compound 0.03 µM) 13.8% | viability, T/C (second compound 10 µM, first compound 0.0949 µM) 11.3% | viability, T/C (second compound 10 µM, first compound 0.3 µM) 11.5%

CC1(C)CCC(CN2CCN(c3ccc(C(=O)NS(=O)(=O)c4ccc(NCC5CCOCC5)c([N+](=O)[O-])c4)c(Oc4cnc5[nH]ccc5c4)c3)CC2)=C(c2ccc(Cl)cc2)C1
inactive: viability, T/C (compound 0.0316 µM) 124% and 120% | viability, T/C (compound 0.1 µM) 111% and 103% | viability, T/C (compound 0.316 µM) 145% and 85.5% | viability, T/C (compound 1 µM) 198% and 117% | viability, T/C (compound 3.16 µM) 221% and 138% | viability, T/C (compound 10 µM) 37.6% and 25.7%
5.05 and 5.14: pIC50 (curve of compound)
